Results taken from patent US20100130408A1, “USE OF MODIFIED CYCLOSPORINS” (priority 2006, published 2010).

How the values were obtained:
MAPKs Signaling Pathways = assay: Western blot analysis for phospho- and nonphospho-MAPKs; assay type: cell-based, human
Protocol: Western blot analysis for phospho- and nonphospho-MAPKs: Western blot analysis is performed as described in Uchimura, et al, Hepatology (2001) 33:91099. HSCs are starved for 24 h, then treated with or without NIM811 for 2 h. Whole cell lysates containing 1×10^7 TWNT-4 cells are prepared in 100 μl SDS-PAGE sample buffer. Protein lysates are subjected to 12% SDS-PAGE, transferred to a polyvinylidene difluoride membrane (Millipore, Bedford, Mass.), and probed with the primary antibody for ERK1/2 MAPK, phospho-ERK1/2 MAPK (Thr202/Tyr204), JNK, phospho-JNK (Thr183/Tyr185), p38 MAPK, or phospho-p38 MAPK (Thr180/Tyr182) (New England Biolabs, Beverly, Mass.). Antibody binding is detected using peroxidase linked anti-rabbit IgG (Amersham Pharmacia Biotech, Piscataway, N.J.) as the secondary antibody. The blots are developed using ECL-plus (Amersham Pharmacia Biotech, Piscataway, N.J.) to visualize the antibodies. The levels of ERK1/2 MAPK, phosphorylated-ERK1/2 MAPK, JNK, phosphorylated-JNK, p38 MAPK, and phosphorylated-p38 MAPK are quantitated by densitometry using an optical scanner system. For comparison, the ratios of phosphorylated ERK1/2, JNK, and p38 MAPK to nonphosphorylated ERK1/2, JNK, and p38 MAPK, respectively, are calculated from the densitometric data.

HSCs [1] = assay: Analysis of apoptosis (TUNEL); assay type: cell-based, rat; details: 2 μM
Protocol: A. In vitro Cell culture: HSCs are isolated from the liver of male Wistar rats by sequential in situ perfusion with collagenase and digestion with pronase, followed by centrifugation in a double-layered (17%/11.5%) metrizamide solution (Sigma. Chemical, St. Louis, Mo.), as described in Kato, et al, J. Hepatol (1999) 31:91-99. HSCs are cultured in Dulbecco's modified Eagle's medium (DMEM) with 10% fetal calf serum (FCS). Experiments are performed on cells between the third and fourth serial passages. To measure […] matrix metalloproteinase (MMP-1) and tissue inhibitor of matrix metalloproteinase (TIMP-1), TWNT-4 cells which is a human cell line derived from HSCs as produced according to Shibata, et al, Cell Transplant (2003) 12:499-507 is used for evaluating the effects of Fasudil on MMP-1 and TIMP-1. TWNT-4 cells are cultured in DMEM with 10% FCS as reported previously (Id). NIM811 (Novartis Pharma AG, Basel, Switzerland) is dissolved in DMEM and added to cultures. […]
Analysis of Apoptosis: HSCs are maintained in either the presence or absence of NIM811 in serum-free conditions for 24 h. […] Cells are then stained with Hoechst 33342, and analyzed by the TUNEL method using an In Situ Cell Death Detection Kit (Roche) according to the manufacturer's instructions. […] At least 100 cells from three independent experiments and from three different cell preparations are counted for each condition.

HSCs [2] = assay: Type 1 collagen assay (ELISA of culture media); assay type: cell-based; details: rat HSCs
Protocol: (§1) A. In vitro Cell culture: HSCs are isolated from the liver of male Wistar rats by sequential in situ perfusion with collagenase and digestion with pronase, followed by centrifugation in a double-layered (17%/11.5%) metrizamide solution (Sigma. Chemical, St. Louis, Mo.), as described in Kato, et al, J. Hepatol (1999) 31:91-99. HSCs are cultured in Dulbecco's modified Eagle's medium (DMEM) with 10% fetal calf serum (FCS). Experiments are performed on cells between the third and fourth serial passages. To measure […] matrix metalloproteinase (MMP-1) and tissue inhibitor of matrix metalloproteinase (TIMP-1), TWNT-4 cells which is a human cell line derived from HSCs as produced according to Shibata, et al, Cell Transplant (2003) 12:499-507 is used for evaluating the effects of Fasudil on MMP-1 and TIMP-1. TWNT-4 cells are cultured in DMEM with 10% FCS as reported previously (Id). NIM811 (Novartis Pharma AG, Basel, Switzerland) is dissolved in DMEM and added to cultures. Cell viability of HSCs is more than 90% under serum-free conditions for 24 h in the presence of 2 μM NIM811.
Type 1 collagen assay: Cultured HSCs are incubated in serum-free medium in the presence or absence of NIM811 for 24 h. Type I collagen is determined in culture media by ELISA as described in Iwamoto, et al, J. Hepatol (2000) 32:762-770. […]

TWNT-4 cells = assay: MMP-1, TIMP-1, and collagenase assay; assay type: cell-based, human
Protocol: as §1
MMP-1, TIMP-1, and collagenase assay: Cultured TWNT-4 cells are incubated in serum-free medium in the presence or absence of NIM811 for 24 h. MMP-1 and TIMP-1 production are determined in culture media by ELISA with a Biotrak ELISA system for human MMP-1 (Amersham Biosciences, Piscataway, N.J., USA) and an hTIMP-1 kit (Daiichi Fine Chemical Co. Ltd., Toyama, Japan), respectively following procedures described in Fukushima, et al, Liver Int (2005) 25:829-838. Active MMP-1 and pro-MMP-1 in culture media are determined with a MMP-1 Biotrak Activity Assay System (Amersham).

In the case of C/C=C/C[C@@H](C)[C@@H](O)[C@H]1C(=O)N[C@@H](CC)C(=O)N(C)CC(=O)N(C)[C@@H]([C@@H](C)CC)C(=O)N[C@@H](C(C)C)C(=O)N(C)[C@@H](CC(C)C)C(=O)N[C@@H](C)C(=O)N[C@H](C)C(=O)N(C)[C@@H](CC(C)C)C(=O)N(C)[C@@H](CC(C)C)C(=O)N(C)[C@@H](C(C)C)C(=O)N1C [NIM811], the “phosphorylation of ERK1/2” value (MAPKs Signaling Pathways) is reported as “does not suppress ERK1/2”, the “enhancement of phosphorylation of JNK” value (MAPKs Signaling Pathways; 0.5 μM) is reported as roughly 3.6 fold and the “enhancement of phosphorylation of p38 MAPK” value (MAPKs Signaling Pathways; 0.5 μM) is reported as roughly 2.3 fold. The apoptosis (HSCs [1]) was “no apoptosis is observed”, the “reduction of collagen accumulation” value (HSCs [2]; 0.5 μM) was “approximately 50%” and the “suppression of collagen accumulation” value (HSCs [2]; increasing concentrations, 24 h) was “concentration-dependent suppression of collagen accumulation”. For the same compound, the “increase in collagenase activity (active MMP-1)” value (TWNT-4 cells; 0.5 μM) was “roughly 2 fold”, the TIMP-1 production (TWNT-4 cells; 2.0 μM) was “does not significantly reduce TIMP-1 production” and the “collagenase activity (active MMP-1) and pro-MMP-1 levels” value (TWNT-4 cells; increasing concentrations) was “concentration-dependent increase”.
